Data published in ChEMBL document CHEMBL4680243, “N-benzyl 4,4-disubstituted piperidines as a potent class of influenza H1N1 virus inhibitors showing a novel mechanism of hemagglutinin fusion peptide interaction” (Eur J Med Chem, 2020).
pIC50: −log10 of the molar value.

Tests used:
Assay type in all cases: cell-based, Influenza A virus (A/Puerto Rico/8/1934(H1N1))
[1] = (§1) Inhibition of Influenza A virus (A/PR 8/34 (H1N1)) hemagglutinin HA1 chain S326V mutant transfected in human HeLa cells assessed as reduction in low pH-indued polykaryon formation preincubated for 15 mins followed by pH 5.2 buffer addition and measured after 5 mins by giemsa staining based microscopic analysis
[2] = as §1, with “1324T” for “S326V”
[3] = as §1, with “HA2” for “HA1”, “L99F” for “S326V”

**Q.** What does the source list for COC(=O)C[C@H](NC(=O)OC(C)(C)C)C(=O)N(Cc1ccc(F)cc1)C1(C(=O)NCc2ccccc2)CCN(Cc2ccccc2)CC1?
**A.** pIC50 [1]: < 4.00; pIC50 [2]: 5.49; pIC50 [3]: < 4.00
